In PMC9254721, “Global update on the susceptibilities of human influenza viruses to neuraminidase inhibitors and the cap-dependent endonuclease inhibitor baloxavir, 2018–2020” (Antiviral research, 2022):

What was measured:
[1] = tested on: B/Yamagata-lineage virus neuraminidase (NA); type: biochemical, influenza B/Yamagata-lineage virus
influenza viruses = type: cell-based, influenza virus
A(H1N2)v viruses = type: cell-based

Q: `CC(=O)N[C@H]1[C@H]([C@H](O)[C@H](O)CO)OC(C(=O)O)=C[C@@H]1N=C(N)N` [Zanamivir, zanamivir] was tested. Which “inhibition phenotype (NI/RI/HRI)” value [1] did it give?
A: The value was “RI (key: normal inhibition (NI) is a <5-fold increase in the NAI IC50; RI is a 5- to 50-fold increase; HRI is a >50-fold increase)”.

Q: For `COC(=O)OCOc1c2n(ccc1=O)N([C@@H]1c3ccccc3SCc3c1ccc(F)c3F)[C@@H]1COCCN1C2=O` [baloxavir, baloxavir marboxil], which “fold increase compared to the respective median EC50” value (influenza viruses) is on record?
A: The value was under 3 fold.

Q: What about the baloxavir susceptibility (A(H1N2)v viruses) of the same compound?
A: Its baloxavir susceptibility is “susceptible”.
